Results on two compounds are retold here after paper PMC12518639, “Apomorphine is a novel necroptosis inhibitor targeting mixed lineage kinase domain-like protein oligomerization” (Cell Death Discovery, 2025).

Experiment [1] has as its system APAP-induced liver injury in BALB/c mice. The experiment in a line: APAP-induced liver injury model. The experiment is classed as in vivo, mouse. To be noted: 15 mg/kg once, APAP i.p., 24 h; for Necrotic area of liver tissue (H&E): n=3. The procedure: For APAP-induced liver injury, male BALB/c mice aged 6–8 weeks (Central Lab Animal Inc., S. Korea) and male MLKL^–/– C57BL/6 mice aged 6–8 weeks (Cyagen, Santa Clara, CA, USA) were administered acetaminophen (APAP; 400–500 mg/kg, 103-90-2, Sigma-Aldrich) by i.p. injection to induce liver injury in the presence or absence of APO after 12 h of fasting. After 24 h, the mice were sacrificed to obtain liver tissues for further analysis.
For liver tissue preparation, each liver was perfused with DPBS and then fixed in 4% paraformaldehyde (PFA; PC2031-050-00, Biosesang, S. Korea) before embedding in paraffin. Sections were stained with H&E, and necrotic areas were quantified using ImageJ by calculating the proportion of pale or unstained regions relative to the total tissue area. Mouse liver sections were subjected to IHC staining to assess distinct forms of cell death: an anti-p-MLKL antibody (MA5-32752, Thermo Fisher Scientific) to evaluate p-MLKL localization (necroptosis), a TUNEL assay kit (4810-30-K, R&D Systems) for apoptosis, and an anti-4-HNE antibody (GTX01087, GeneTex) for ferroptosis.

A further experiment deals with p-MLKL oligomer. The experiment in a line: MLKL oligomerization Western blot (non-reducing/reducing) in THP-1 cells. The experiment is classed as cell-based, human. To be noted: THP-1, TBZ, 8 h; for tetramerization and octamerization of p-MLKL: non-reducing conditions; for phosphorylation levels of RIP1, RIP3 and MLKL: reducing conditions. The procedure: Fig. 2 Effect of redox-sensitive APO on MLKL oligomerization. A Chemical structure of APO. APO undergoes auto-oxidation to form the oxidized form (Ox-APO), while the addition of DTT preserves the reduced form (Re-APO). The red highlights indicate the sites where APO loses hydrogen and electrons during the oxidation process. B Real-time 1D ^1H NMR spectra showing the degree of oxidation of APO. APO was dissolved from its powdered form in DPBS and incubated at 25 °C for 36 h. Real-time 1D ^1H NMR spectra were measured at a 2 h intervals after filtration through a 0.2 μm syringe filter to remove precipitates. […] C MLKL oligomerization is inhibited by APO. THP-1 cells were treated with TBZ and Re-APO or Ox-APO for 8 h. Western blot analysis of WCLs was performed under non-reducing and reducing conditions using the indicated antibodies. Percentage changes of p-MLKL oligomer band relative to GAPDH were shown. The p value for MLKL oligomer band intensity was calculated based on the average intensity of the tetramer and octamer bands. Octa octamer, Tetra tetramer, Mono monomer. Mean ± SEM (n = 3). **p < 0.001, ns not significant, one-way ANOVA. D THP-1 cells were treated with TBZ and Ox-APO or Re-APO for 8 h and then stained with DAPI and MLKL for confocal microscopy. In the intensity graph, green indicates MLKL. The signal intensity of MLKL fluorescence from the plasma membrane to the cytosol was measured using FluoView FV1000 software. Mean ± SEM (n > 100). **p < 0.01, ***p < 0.001, one-way ANOVA. E J774A.1 mouse monocytic cells were treated with TBZ and 20 μM Re-APO or Ox-APO for 8 h. Western blot analysis of WCLs was performed under non-reducing and reducing conditions using the indicated antibodies.
The cells were harvested and lysed in 1× RIPA buffer (R4100-010, GenDEPOT, Katy, TX, USA) containing protease (P3100-001, GenDEPOT) and phosphatase (1862495, Thermo Fisher Scientific) inhibitors. WCLs were then centrifuged at 20,000×g for 30 min at 4 °C and subjected to non-reducing or reducing 8–12% SDS-PAGE gel electrophoresis. The membrane was blocked with 5% non-fat milk in TBS and probed with antibodies. Antibodies to hMLKL (14993S), mMLKL (97705S), phospho-hMLKL (Ser358) (91689S), phospho-mMLKL (Ser345) (37333S), phospho-hRIP1 (Ser166) (65746S), mRIP1 (3493S), phospho-mRIP1 (Ser321) (38662S), phospho-hRIP3 (Ser227) (93654), mRIP3 (95702S), p-mRIP3 (Thr231/Ser232) (91702S), and LDH (2012S) (Cell Signaling Technology, Danvers, MA, USA), and GAPDH (LF-PA0018, Abfrontier, S. Korea), hRIP1 (ab72139, Abcam, Cambridge, UK), hRIP3 (sc-135170, Santa Cruz Biotechnology, Dallas, TX, USA), HMGB1 (ab78923, Abcam), and LAMP1 (ab24170, Abcam) antibodies were used.
(In general: A western blot detects proteins with antibodies after separation by electrophoresis.)

As to `CN1CCc2cccc3c4c(cc1c23)C=CC(=O)C4=O` [Ox-APO], in experiment [1], the “Serum ALT and AST levels” value was “significantly improved”; the “membrane p-MLKL in liver (IHC)” value is “dramatic decrease”; the “Necrotic area of liver tissue (H&E)” value stood at 1%. For the same compound, in the experiment with p-MLKL oligomer, the “tetramerization and octamerization of p-MLKL” value was “strongly inhibited”; the “phosphorylation levels of RIP1, RIP3 and MLKL” value is listed as “little effect”.
The matching figures for `CN1CCc2cccc3c2C1Cc1ccc(O)c(O)c1-3` (stereo not shown) [Re-APO]: “significantly improved”, “dramatic decrease”, 3%, “less effective than Ox-APO” and “little effect”.
